Test results reported in BindingDB's records for doi:10.1021/jm060133g (Pfizer, 2006).

Legend:
[1] = target: Neprilysin (Canis familiaris); test: Inhibition of dog NEP

Compound | IC50 (Inhibition of dog ACE) [nM] | IC50 [1] [nM]
CCCC(CC1(C(=O)NC2(CO)Cc3ccccc3C2)CCCC1)C(=O)O (racemic) [rac-2-((1-((2-(hydroxymethyl)-2,3-dihydro-1H-inden-2-yl)carbamoyl)cyclopentyl)methyl)pentanoic acid] | > 3000 | 
CCCC(CC1(C(=O)Nc2nnc(CC)s2)CCCC1)C(=O)O (racemic) [rac-2-((1-((5-ethyl-1,3,4-thiadiazol-2-yl)carbamoyl)cyclopentyl)methyl)pentanoic acid] | > 3000 | 
CCCC(CC1(C(=O)Nc2nnc(C)s2)CCCC1)C(=O)O (racemic) [rac-2-((1-((5-methyl-1,3,4-thiadiazol-2-yl)carbamoyl)cyclopentyl)methyl)pentanoic acid] | > 3000 | 
CCCC(CC1(NC(=O)c2ccc(=O)n(Cc3ccccc3)c2)CCCC1)C(=O)O (stereo not given) [2-((1-(1-benzyl-2-oxo-1,2-dihydropyridine-5-carboxamido)cyclopentyl)methyl)pentanoic acid] |  | > 3000
CCCC(CC1(c2nnc(-c3ccc(=O)n(Cc4ccccc4)c3)o2)CCCC1)C(=O)O (stereo not given) [2-((1-(5-(1-benzyl-6-oxo-1,6-dihydropyridin-3-yl)-1,3,4-oxadiazol-2-yl)cyclopentyl)methyl)pentanoic acid] | > 3000 | 1140
CCCC(CC1(c2nnc(Cc3ccccc3)o2)CCCC1)C(=O)O (stereo not given) [2-((1-(5-benzyl-1,3,4-oxadiazol-2-yl)cyclopentyl)methyl)pentanoic acid] | > 3000 | 3100
CCCC(CC1(C(=O)Nc2nncs2)CCCC1)C(=O)O (stereo not given) [2-((1-((1,3,4-thiadiazol-2-yl)carbamoyl)cyclopentyl)methyl)pentanoic acid] | > 3000 | 
CCCC(CC1(C(=O)NC2(CO)CCCC2)CCCC1)C(=O)O (stereo not given) [2-((1-((1-(hydroxymethyl)cyclopentyl)carbamoyl)cyclopentyl)methyl)pentanoic acid] | > 3000 | 1710
CCCC(CC1(C(=O)Nc2ccc(=O)n(Cc3ccccc3)c2)CCCC1)C(=O)O (stereo not given) [2-((1-((1-benzyl-6-oxo-1,6-dihydropyridin-3-yl)carbamoyl)cyclopentyl)methyl)pentanoic acid] | > 3000 | 313
CCCC(CC1(C(=O)Nc2cn(CC)nn2)CCCC1)C(=O)O (stereo not given) [2-((1-((1-ethyl-1H-1,2,3-triazol-4-yl)carbamoyl)cyclopentyl)methyl)pentanoic acid] | > 3000 | 
CCCC(CC1(C(=O)NC2Cc3ccccc3C2)CCCC1)C(=O)O (stereo not given) [2-((1-((2,3-dihydro-1H-inden-2-yl)carbamoyl)cyclopentyl)methyl)pentanoic acid] | > 3000 | 
CCCC(CC1(C(=O)NC2CCCC(C(=O)N(C)C)C2)CCCC1)C(=O)O (stereo not given) [2-((1-((3-(dimethylcarbamoyl)cyclohexyl)carbamoyl)cyclopentyl)methyl)pentanoic acid] | > 3000 | 
CCCC(CC1(C(=O)Nc2ncccc2CC)CCCC1)C(=O)O (stereo not given) [2-((1-((3-ethylpyridin-2-yl)carbamoyl)cyclopentyl)methyl)pentanoic acid] |  | 1710
CCCNc1ccnc(NC(=O)C2(CC(CCC)C(=O)O)CCCC2)n1 (stereo not given) [2-((1-((4-(propylamino)pyrimidin-2-yl)carbamoyl)cyclopentyl)methyl)pentanoic acid] | > 3000 | > 2000
CCCC(CC1(C(=O)Nc2cc(Cc3ccccc3)ccn2)CCCC1)C(=O)O (stereo not given) [2-((1-((4-benzylpyridin-2-yl)carbamoyl)cyclopentyl)methyl)pentanoic acid] | > 3000 | 96
CCCCc1ccnc(NC(=O)C2(CC(CCC)C(=O)O)CCCC2)c1 (stereo not given) [2-((1-((4-butylpyridin-2-yl)carbamoyl)cyclopentyl)methyl)pentanoic acid] | > 3000 | 184
CCCC(CC1(C(=O)NCCc2ccc(Cl)cc2)CCCC1)C(=O)O (stereo not given) [2-((1-((4-chlorophenethyl)carbamoyl)cyclopentyl)methyl)pentanoic acid] |  | > 2000
CCCC(CC1(C(=O)Nc2cc(C)ccn2)CCCC1)C(=O)O (stereo not given) [2-((1-((4-methylpyridin-2-yl)carbamoyl)cyclopentyl)methyl)pentanoic acid] |  | 630
CCCC(CC1(C(=O)Nc2nnc(CC3CC3)s2)CCCC1)C(=O)O (stereo not given) [2-((1-((5-(cyclopropylmethyl)-1,3,4-thiadiazol-2-yl)carbamoyl)cyclopentyl)methyl)pentanoic acid] | > 3000 | 
CCCC(CC1(C(=O)Nc2nnc(Cc3ccccc3)s2)CCCC1)C(=O)O (stereo not given) [2-((1-((5-benzyl-1,3,4-thiadiazol-2-yl)carbamoyl)cyclopentyl)methyl)pentanoic acid] | > 3000 | 
CCc1nnc(NC(=O)C2(CC(CCc3ccccc3)C(=O)O)CCCC2)s1 (stereo not given) [2-((1-((5-ethyl-1,3,4-thiadiazol-2-yl)carbamoyl)cyclopentyl)methyl)-4-phenylbutanoic acid] | > 3000 | 46
CCc1nnc(NC(=O)C2(CC(CCC(C)C)C(=O)O)CCCC2)s1 (stereo not given) [2-((1-((5-ethyl-1,3,4-thiadiazol-2-yl)carbamoyl)cyclopentyl)methyl)-5-methylhexanoic acid] | > 3000 | 
CCCCC(CC1(C(=O)Nc2nnc(CC)s2)CCCC1)C(=O)O (stereo not given) [2-((1-((5-ethyl-1,3,4-thiadiazol-2-yl)carbamoyl)cyclopentyl)methyl)hexanoic acid] | > 3000 | 

Compound | IC50 (Inhibition of dog ACE) [nM] | IC50 [1] [nM]
CCCC(CC1(C(=O)Nc2nnc(CC(C)C)s2)CCCC1)C(=O)O (stereo not given) [2-((1-((5-isobutyl-1,3,4-thiadiazol-2-yl)carbamoyl)cyclopentyl)methyl)pentanoic acid] | > 3000 | 124
CCCC(CC1(C(=O)Nc2nnc(-c3ccccc3)s2)CCCC1)C(=O)O (stereo not given) [2-((1-((5-phenyl-1,3,4-thiadiazol-2-yl)carbamoyl)cyclopentyl)methyl)pentanoic acid] | > 3000 | 
CCCC(CC1(C(=O)Nc2cccc(CC)n2)CCCC1)C(=O)O (stereo not given) [2-((1-((6-ethylpyridin-2-yl)carbamoyl)cyclopentyl)methyl)pentanoic acid] |  | > 2000
CCCC(CC1(C(=O)Nc2ccc(OC)nn2)CCCC1)C(=O)O (stereo not given) [2-((1-((6-methoxypyridazin-3-yl)carbamoyl)cyclopentyl)methyl)pentanoic acid] | > 3000 | 
CCCC(CC1(C(=O)N[C@@H]2CCCC[C@@H]2Cc2ccccc2)CCCC1)C(=O)O (stereo partly drawn) [2-((1-(((1R,2R)-2-benzylcyclohexyl)carbamoyl)cyclopentyl)methyl)pentanoic acid] | > 3000 | 195
CCCC(CC1(C(=O)N[C@@H]2CCCC[C@@H]2CCC)CCCC1)C(=O)O (stereo partly drawn) [2-((1-(((1R,2S)-2-propylcyclohexyl)carbamoyl)cyclopentyl)methyl)pentanoic acid] | > 3000 | 
CCCC(CC1(C(=O)N[C@@H]2CC[C@H](C(N)=O)C2)CCCC1)C(=O)O (stereo partly drawn) [2-((1-(((1R,3S)-3-carbamoylcyclopentyl)carbamoyl)cyclopentyl)methyl)pentanoic acid] | > 3000 | 213
CCCC(CC1(C(=O)NCc2nnc(C)s2)CCCC1)C(=O)O (stereo not given) [2-((1-(((5-methyl-1,3,4-thiadiazol-2-yl)methyl)carbamoyl)cyclopentyl)methyl)pentanoic acid] | > 3000 | 
CCCC(CC1(C(=O)N[C@@H]2CCN(Cc3ccccc3)C2)CCCC1)C(=O)O (stereo partly drawn) [2-((1-(((R)-1-benzylpyrrolidin-3-yl)carbamoyl)cyclopentyl)methyl)pentanoic acid] | > 3000 | 1060
CCCC(CC1(C(=O)N[C@H](C)c2ccccc2)CCCC1)C(=O)O (stereo partly drawn) [2-((1-(((R)-1-phenylethyl)carbamoyl)cyclopentyl)methyl)pentanoic acid] | > 3000 | 
CCCC(CC1(C(=O)N[C@H](CO)Cc2ccccc2)CCCC1)C(=O)O (stereo partly drawn) [2-((1-(((S)-1-hydroxy-3-phenylpropan-2-yl)carbamoyl)cyclopentyl)methyl)pentanoic acid] | > 3000 | 384
CCCC(CC1(C(=O)NCc2ccc3c(c2)OCO3)CCCC1)C(=O)O (stereo not given) [2-((1-((benzo[d][1,3]dioxol-5-ylmethyl)carbamoyl)cyclopentyl)methyl)pentanoic acid] | > 3000 | 
CCCC(CC1(C(=O)Nc2ccccn2)CCCC1)C(=O)O (stereo not given) [2-((1-(pyridin-2-ylcarbamoyl)cyclopentyl)methyl)pentanoic acid] | > 3000 | 
CCc1nnc(NC(=O)C2(CCC(=O)O)CCCC2)s1 [3-(1-((5-ethyl-1,3,4-thiadiazol-2-yl)carbamoyl)cyclopentyl)propanoic acid] | > 3000 | 237
CCC[C@H](CC1(C(=O)NC2(CO)Cc3ccccc3C2)CCCC1)C(=O)O [(R)-2-((1-((2-(hydroxymethyl)-2,3-dihydro-1H-inden-2-yl)carbamoyl)cyclopentyl)methyl)pentanoic acid] | > 3000 | 
CCC[C@H](CC1(C(=O)Nc2nnc(CC)s2)CCCC1)C(=O)O [(R)-2-((1-((5-ethyl-1,3,4-thiadiazol-2-yl)carbamoyl)cyclopentyl)methyl)pentanoic acid] | > 3000 | 
CCC[C@H](CC1(C(=O)Nc2nnc(C)s2)CCCC1)C(=O)O [(R)-2-((1-((5-methyl-1,3,4-thiadiazol-2-yl)carbamoyl)cyclopentyl)methyl)pentanoic acid] | > 3000 | 
CCC[C@@H](CC1(C(=O)NC2(CO)Cc3ccccc3C2)CCCC1)C(=O)O [(S)-2-((1-((2-(hydroxymethyl)-2,3-dihydro-1H-inden-2-yl)carbamoyl)cyclopentyl)methyl)pentanoic acid] | > 3000 | 
CCC[C@@H](CC1(C(=O)Nc2nnc(CC)s2)CCCC1)C(=O)O [(S)-2-((1-((5-ethyl-1,3,4-thiadiazol-2-yl)carbamoyl)cyclopentyl)methyl)pentanoic acid] | > 3000 | 
CCC[C@@H](CC1(C(=O)Nc2nnc(C)s2)CCCC1)C(=O)O [(S)-2-((1-((5-methyl-1,3,4-thiadiazol-2-yl)carbamoyl)cyclopentyl)methyl)pentanoic acid] | > 5000 | 
CCCC(CC1(C(=O)N[C@H]2CC[C@@H](C(=O)N(C)C)CC2)CCCC1)C(=O)O (stereo partly drawn) [cis-2-((1-((4-(dimethylcarbamoyl)cyclohexyl)carbamoyl)cyclopentyl)methyl)pentanoic acid] | > 3000 | 
CCCC(CC1(C(=O)N[C@H]2CC[C@@H](C(N)=O)CC2)CCCC1)C(=O)O (stereo partly drawn) [cis-2-((1-((4-carbamoylcyclohexyl)carbamoyl)cyclopentyl)methyl)pentanoic acid] | > 3000 | 150
